ChEMBL document CHEMBL1201862, “PubChem BioAssay data set” (2004)
Where a name gives a salt, the structure may show the parent alone.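 Five concentrations, 48 hours, 96-well plates. Abbreviation: GI50, concentration required for 50% inhibition of growth.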 Active and inactive are the calls of the source. Cut-off read from the data, not from the text of the source: active = GI50 up to about 1.1 µM and inactive = higher.

Legend:
Assay in all cases: inhibition of tumour cell growth, NCI panel, 48 h
786-0 = tested on: 786-0
A549 = tested on: A549
ACHN = tested on: ACHN
HCC 2998 = tested on: HCC 2998
HL-60 = tested on: HL-60
HOP-92 = tested on: HOP-92
K562 = tested on: K562
NCI-H460 = tested on: NCI-H460
OVCAR-3 = tested on: OVCAR-3
SF-268 = tested on: SF-268
SK-MEL-2 = tested on: SK-MEL-2
TK-10 = tested on: TK-10
UACC-257 = tested on: UACC-257
BT-549 = tested on: BT-549
Hs-578T = tested on: Hs-578T
MCF7 = tested on: MCF7
MDA-MB-231 = tested on: MDA-MB-231
RXF 393 = tested on: RXF 393
T47D = tested on: T47D

Row | SMILES | GI50 (786-0) | GI50 (A549) | GI50 (ACHN) | GI50 (HCC 2998) | GI50 (HL-60) | GI50 (HOP-92) | GI50 (K562) | GI50 (NCI-H460) | GI50 (OVCAR-3) | GI50 (SF-268) | GI50 (SK-MEL-2) | GI50 (TK-10) | GI50 (UACC-257) | GI50 (BT-549) | GI50 (Hs-578T) | GI50 (MCF7) | GI50 (MDA-MB-231) | GI50 (RXF 393) | GI50 (T47D)
1 | O=c1cc(-c2ccccc2)oc2cc(O)cc(O)c12 [CHRYSIN] | 23.6 µM (inactive) | 27 µM (inactive) | 15.2 µM (inactive) | 19.8 µM (inactive) | 16.8 µM (inactive) | 16.4 µM (inactive) | 22.8 µM (inactive) | 14.2 µM (inactive) | 28.8 µM (inactive) | 23.1 µM (inactive) | 17.9 µM (inactive) | 34.5 µM (inactive) | 21.1 µM (inactive) | – | – | – | – | – | –
2 | COC(=O)/C=C(\C)CC/C=C(\C)CCC(O)C(C)(C)O (centres undefined) | 19.4 µM (inactive) | 34.8 µM (inactive) | 25.6 µM (inactive) | 16.8 µM (inactive) | 15.6 µM (inactive) | 29.9 µM (inactive) | 26.1 µM (inactive) | 19.8 µM (inactive) | 17.9 µM (inactive) | – | 15.9 µM (inactive) | 45 µM (inactive) | 36.4 µM (inactive) | 29 µM (inactive) | 28.6 µM (inactive) | 37 µM (inactive) | > 100 µM (inactive) | 26.3 µM (inactive) | –
3 | CC1=CC(=O)C[C@]2(C)[C@@H](O)CC(C(C)CO)C[C@@H]12 (some centres undefined) | > 100 µM (inactive) | > 100 µM (inactive) | > 100 µM (inactive) | > 100 µM (inactive) | > 100 µM (inactive) | > 100 µM (inactive) | – | > 100 µM (inactive) | > 100 µM (inactive) | > 100 µM (inactive) | > 100 µM (inactive) | > 100 µM (inactive) | > 100 µM (inactive) | > 100 µM (inactive) | – | > 100 µM (inactive) | > 100 µM (inactive) | > 100 µM (inactive) | > 100 µM (inactive)
4 | O=C1CCCC1C(=O)Nc1ccc2ccccc2c1 (centres undefined) | > 100 µM (inactive) | > 100 µM (inactive) | > 100 µM (inactive) | > 100 µM (inactive) | 35.6 µM (inactive) | > 100 µM (inactive) | 53.5 µM (inactive) | > 100 µM (inactive) | > 100 µM (inactive) | > 100 µM (inactive) | > 100 µM (inactive) | > 100 µM (inactive) | > 100 µM (inactive) | > 100 µM (inactive) | – | > 100 µM (inactive) | > 100 µM (inactive) | 44.5 µM (inactive) | 62.5 µM (inactive)
5 | O=[N+]([O-])C(C(Cl)=C(Cl)Cl)=C(N1CCOCC1)N1CCOCC1 | > 100 µM (inactive) | > 100 µM (inactive) | > 100 µM (inactive) | > 100 µM (inactive) | > 100 µM (inactive) | – | > 100 µM (inactive) | – | > 100 µM (inactive) | > 100 µM (inactive) | > 100 µM (inactive) | > 100 µM (inactive) | > 100 µM (inactive) | – | 54.2 µM (inactive) | – | > 100 µM (inactive) | > 100 µM (inactive) | > 100 µM (inactive)
6 | Clc1cccc(C2ON=C(c3ccccc3)N2C23CC4CC(CC(C4)C2)C3)c1Cl (centres undefined) | > 10 µM (inactive) | > 10 µM (inactive) | > 10 µM (inactive) | > 10 µM (inactive) | – | 2.72 µM (inactive) | > 10 µM (inactive) | > 10 µM (inactive) | > 10 µM (inactive) | > 10 µM (inactive) | > 10 µM (inactive) | > 10 µM (inactive) | > 10 µM (inactive) | – | > 10 µM (inactive) | > 10 µM (inactive) | > 10 µM (inactive) | > 10 µM (inactive) | > 10 µM (inactive)
7 | CCOC(=O)c1ccc(NCc2ccc3oc(=O)c(-c4ccccc4)nc3c2)cc1 | 34.5 µM (inactive) | 68.5 µM (inactive) | 26.6 µM (inactive) | > 100 µM (inactive) | 3.94 µM (inactive) | 31.2 µM (inactive) | 22.5 µM (inactive) | > 100 µM (inactive) | 18.7 µM (inactive) | 64.1 µM (inactive) | > 100 µM (inactive) | – | 20.3 µM (inactive) | – | – | 15.8 µM (inactive) | 64.7 µM (inactive) | 8.36 µM (inactive) | 12.4 µM (inactive)
8 | O=C(O)c1ccc(Nc2cnc3cc(C(F)(F)F)ccc3n2)cc1 | 67.6 µM (inactive) | 42 µM (inactive) | 34.1 µM (inactive) | 30.2 µM (inactive) | 22.8 µM (inactive) | – | 29.5 µM (inactive) | 36.1 µM (inactive) | 34.5 µM (inactive) | > 100 µM (inactive) | – | 31.5 µM (inactive) | 43.7 µM (inactive) | – | 40 µM (inactive) | 38 µM (inactive) | 36.7 µM (inactive) | 46.9 µM (inactive) | 20.9 µM (inactive)
9 | CN(C)c1cccc2c(S(=O)(=O)NCCCNCCN)cccc12 | 53.1 µM (inactive) | 66.5 µM (inactive) | > 100 µM (inactive) | 24 µM (inactive) | 26.1 µM (inactive) | 34.4 µM (inactive) | 20.8 µM (inactive) | 62.4 µM (inactive) | 62.5 µM (inactive) | 65.6 µM (inactive) | 25.9 µM (inactive) | – | > 100 µM (inactive) | – | 22.3 µM (inactive) | – | 41.5 µM (inactive) | 36.8 µM (inactive) | 49.4 µM (inactive)
10 | N#CSC#CCCC#CSC#N | 20.3 µM (inactive) | 19.6 µM (inactive) | 17.5 µM (inactive) | 17.5 µM (inactive) | > 100 µM (inactive) | 17.5 µM (inactive) | 13.4 µM (inactive) | 22.2 µM (inactive) | 21.6 µM (inactive) | 30.1 µM (inactive) | 20.3 µM (inactive) | 17.9 µM (inactive) | 16.9 µM (inactive) | 21.7 µM (inactive) | 23.5 µM (inactive) | 20.7 µM (inactive) | 17.7 µM (inactive) | 18.9 µM (inactive) | –
11 | COCn1cc(C2=C(C)C(=O)C(C)=C(C)C2=O)cn1 | 18 µM (inactive) | > 100 µM (inactive) | 85.9 µM (inactive) | > 100 µM (inactive) | 4.6 µM (inactive) | 12.7 µM (inactive) | 18.9 µM (inactive) | > 100 µM (inactive) | 19.5 µM (inactive) | 25.4 µM (inactive) | > 100 µM (inactive) | > 100 µM (inactive) | 85.5 µM (inactive) | – | > 100 µM (inactive) | > 100 µM (inactive) | 18.6 µM (inactive) | > 100 µM (inactive) | 23.6 µM (inactive)
12 | C#Cc1cccc(Nc2ncnc3cc(OCCOC)c(OCCOC)cc23)c1 [ERLOTINIB HYDROCHLORIDE] | 8.91 µM (inactive) | 1.59 µM (inactive) | 0.109 µM (active) | – | – | 4.05 µM (inactive) | – | 2.31 µM (inactive) | – | – | 4.11 µM (inactive) | – | > 100 µM (inactive) | – | 5.01 µM (inactive) | – | 0.0139 µM (active) | – | –
13 | O=C(O)C(C(C(=O)O)P(=O)(O)O)P(=O)(O)O (centres undefined) | > 100 µM (inactive) | > 100 µM (inactive) | > 100 µM (inactive) | > 100 µM (inactive) | > 100 µM (inactive) | 86.1 µM (inactive) | > 100 µM (inactive) | – | > 100 µM (inactive) | > 100 µM (inactive) | > 100 µM (inactive) | > 100 µM (inactive) | – | > 100 µM (inactive) | > 100 µM (inactive) | > 100 µM (inactive) | – | – | –
